Laboratory results from patent US20120214760A1, “TREATMENT OF URINARY TRACT INFECTIONS WITH ANTIBACTERIAL AMINOGLYCOSIDE COMPOUNDS” (Achaogen, Inc., priority 2009, published 2012).
Values after ≈ are worked out from the molar mass of the structure shown. Where two headings read alike, the source gives them in different places.

Experiments:
[1] = test system: E. coli ATCC 25922 (AECO001); test: MIC, CLSI broth microdilution; format: cell-based; settings: Escherichia coli
Method: (§1) Minimum inhibitory concentrations (MIC) were determined by reference Clinical and Laboratory Standards Institute (CLSI) broth microdilution methods per M7-A7 [2006]. Quality control ranges utilizing E. coli ATCC 25922, P. aeruginosa ATCC 27853 and S. aureus ATCC 29213, and interpretive criteria for comparator agents were as published in CLSI M100-S17 [2007]. Briefly, serial two-fold dilutions of the test compounds were prepared at 2× concentration in Mueller Hinton Broth. The compound dilutions were mixed in 96-well assay plates in a 1:1 ratio with bacterial inoculum. The inoculum was prepared by suspension of a colony from an agar plate that was prepared the previous day. Bacteria were suspended in sterile saline and added to each assay plate to obtain a final concentration of 5×10^5 CFU/mL. The plates were incubated at 35° C. for 20 hours in ambient air.

[2] = test system: P. aeruginosa ATCC 27853 (APAE001); test: MIC, CLSI broth microdilution; format: cell-based; settings: Pseudomonas aeruginosa
Method: as §1

[3] = ATCC25922, read-out: MIC AECO001, Table 1, AECO001 is ATCC25922
[4] = ATCC27853, read-out: MIC APAE001, Table 1, APAE001 is ATCC27853

Compound	MIC ([1]; ATCC25922, Table 2, read-out: MIC E. coli) [µg/mL]	MIC ([1]; Table 1, AECO001 is ATCC25922, read-out: MIC AECO001) [µg/mL]	MIC ([2]; ATCC27853, Table 2, read-out: MIC P. aeruginosa) [µg/mL]	MIC [1, 3] [µg/mL]	MIC [2, 4] [µg/mL]
CN[C@@H]1[C@@H](O)[C@@H](O[C@@H]2[C@@H](O)[C@H](O[C@H]3OC(CNCCCN)=CC[C@H]3N)[C@@H](N)C[C@H]2NC(=O)C2(O)CNC2)OC[C@]1(C)O [Example 57]	< 1	< 1	< 1	–	–
CN[C@@H]1[C@@H](O)[C@@H](O[C@@H]2[C@@H](O)[C@H](O[C@H]3OC(CNC[C@H]4C[C@H](N)C4)=CC[C@H]3N)[C@@H](N)C[C@H]2NC(=O)[C@@H](O)CN)OC[C@]1(C)O [Example 59, 6′-(Methyl-trans-3-amino-cyclobutyl)-1-(3-amino-2(S)-hydroxy-propionyl)-sisomicin]	–	–	–	< 1	1 to 16 (≈ 1.62 to 25.9 µM)
CN[C@@H]1[C@@H](O)[C@@H](O[C@@H]2[C@@H](O)[C@H](O[C@H]3OC(CNC[C@H]4C[C@H](N)C4)=CC[C@H]3N)[C@@H](N)C[C@H]2NC(=O)C2(O)CC(N)C2)OC[C@]1(C)O (stereo partly shown) [Example 60]	–	–	–	< 1	1 to 16 (≈ 1.55 to 24.9 µM)
CN[C@@H]1[C@@H](O)[C@@H](O[C@@H]2[C@@H](O)[C@H](O[C@H]3OC(CNCCO)=CC[C@H]3N)[C@@H](N)C[C@H]2NC(=O)C2(O)CC(N)C2)OC[C@]1(C)O (stereo partly shown) [Example 62]	–	–	–	< 1	1 to 16 (≈ 1.65 to 26.5 µM)
CN[C@@H]1[C@@H](O)[C@@H](O[C@@H]2[C@@H](O)[C@H](O[C@H]3OC(CNC[C@H]4C[C@H](N)C4)=CC[C@H]3N)[C@@H](N)C[C@H]2NC(=O)C2(O)CNC2)OC[C@]1(C)O [Example 63]	–	–	–	< 1	1 to 16 (≈ 1.59 to 25.4 µM)
CN[C@@H]1[C@@H](O)[C@@H](O[C@@H]2[C@@H](O)[C@H](O[C@H]3OC(CNC[C@@H]4C[C@H](N)CN4)=CC[C@H]3N)[C@@H](N)C[C@H]2NC(=O)[C@@H](O)CN)OC[C@]1(C)O [Example 65, 6′-(Methyl-4(S)-amino-pyrrolidin-2(S)-yl)-1-(3-amino-2(S)-hydroxy-propionyl)-sisomicin]	–	–	–	1 to 16 (≈ 1.58 to 25.3 µM)	1 to 16 (≈ 1.58 to 25.3 µM)
CN[C@@H]1[C@@H](O)[C@@H](O[C@@H]2[C@@H](O)[C@H](O[C@H]3OC(CNCC4(CN)CC4)=CC[C@H]3N)[C@@H](N)C[C@H]2NC(=O)[C@@H](O)CN)OC[C@]1(C)O [Example 66, 6′-(Methyl-1-aminomethyl-cyclopropyl)-1-(3-amino-2(S)-hydroxy-propionyl)-sisomicin]	–	–	–	< 1	1 to 16 (≈ 1.62 to 25.9 µM)
CN[C@@H]1[C@@H](O)[C@@H](O[C@@H]2[C@@H](O)[C@H](O[C@H]3OC(CNCC4(N)CC4)=CC[C@H]3N)[C@@H](N)C[C@H]2NC(=O)[C@@H](O)CN)OC[C@]1(C)O [Example 67, 6′-(Methyl-1-Amino-cyclopropyl)-1-(3-amino-2(S)-hydroxy-propionyl)-sisomicin]	–	–	–	1 to 16 (≈ 1.66 to 26.5 µM)	1 to 16 (≈ 1.66 to 26.5 µM)
CN[C@@H]1[C@@H](O)[C@@H](O[C@@H]2[C@@H](O)[C@H](O[C@H]3OC(CNCC(O)CCN)=CC[C@H]3N)[C@@H](N)C[C@H]2NC(=O)[C@@H](O)CN)OC[C@]1(C)O (stereo partly drawn) [Example 68, 6′-(2-Hydroxy-4-amino-butyl)-1-(3-amino-2(S)-hydroxy-propionyl)-sisomicin]	–	–	–	1 to 16 (≈ 1.61 to 25.7 µM)	1 to 16 (≈ 1.61 to 25.7 µM)
CN[C@@H]1[C@@H](O)[C@@H](O[C@@H]2[C@@H](O)[C@H](O[C@H]3OC(CNC[C@H]4C[C@@H](N)[C@@H](O)C4)=CC[C@H]3N)[C@@H](N)C[C@H]2NC(=O)[C@@H](O)CN)OC[C@]1(C)O [Example 69, 6′-(Methyl-1(R)-amino-2(S)-hydroxy-cyclopent-4(S)-yl)-1-(3-amino-2(S)-hydroxy-propionyl)-sisomicin]	–	–	–	< 1	1 to 16 (≈ 1.54 to 24.7 µM)
CN[C@@H]1[C@@H](O)[C@@H](O[C@@H]2[C@@H](O)[C@H](O[C@H]3OC(CNCCC4(O)CNC4)=CC[C@H]3N)[C@@H](N)C[C@H]2NC(=O)[C@@H](O)CN)OC[C@]1(C)O [Example 70, 6′-(Ethyl-2-(3-hydroxy-azetidin-3-yl))-1-(3-amino-2(S)-hydroxy-propionyl)-sisomicin]	–	–	–	1 to 16 (≈ 1.58 to 25.2 µM)	> 16
CN[C@@H]1[C@@H](O)[C@@H](O[C@@H]2[C@@H](O)[C@H](O[C@H]3OC(CNCC4CC4)=CC[C@H]3N)[C@@H](N)C[C@H]2NC(=O)C(O)C2CNC2)OC[C@]1(C)O (stereo partly shown) [Example 71, 6′-Methylcyclopropyl-1-(2-(azetidin-3-yl)-2-hydroxy-acetyl)-sisomicin]	–	–	–	1 to 16 (≈ 1.63 to 26 µM)	> 16
CN[C@@H]1[C@@H](O)[C@@H](O[C@@H]2[C@@H](O)[C@H](O[C@H]3OC(CNC[C@H]4C[C@H](N)C4)=CC[C@H]3N)[C@@H](N)C[C@H]2NC(=O)C(O)C2CNC2)OC[C@]1(C)O (stereo partly drawn) [Example 72, 6′-(Methyl-trans-3-amino-cyclobutyl)-1-(2-(azetidin-3-yl)-2-hydroxy-acetyl)-sisomicin]	–	–	–	1 to 16 (≈ 1.55 to 24.9 µM)	1 to 16 (≈ 1.55 to 24.9 µM)
CN[C@@H]1[C@@H](O)[C@@H](O[C@@H]2[C@@H](O)[C@H](O[C@H]3OC(CNCC4CNC4)=CC[C@H]3N)[C@@H](N)C[C@H]2NC(=O)[C@@H](O)CN)OC[C@]1(C)O [Example 73, 6′-(Methyl-azetidin-3-yl)-1-(3-amino-2(S)-hydroxy-propionyl)-sisomicin]	–	–	–	1 to 16 (≈ 1.66 to 26.5 µM)	1 to 16 (≈ 1.66 to 26.5 µM)
CN[C@@H]1[C@@H](O)[C@@H](O[C@@H]2[C@@H](O)[C@H](O[C@H]3OC(CNCC4(CN)CC4)=CC[C@H]3N)[C@@H](N)C[C@H]2NC(=O)C(O)C2CNC2)OC[C@]1(C)O (stereo partly shown) [Example 74, 6′-(Methyl-1-aminomethyl-cyclopropyl)-1-(2-(azetidin-3-yl)-2-hydroxy-acetyl)-sisomicin]	–	–	–	1 to 16 (≈ 1.55 to 24.9 µM)	> 16
CN[C@@H]1[C@@H](O)[C@@H](O[C@@H]2[C@@H](O)[C@H](O[C@H]3OC(CNCCO)=CC[C@H]3N)[C@@H](N)C[C@H]2NC(=O)C(O)C2CNC2)OC[C@]1(C)O (stereo partly shown) [Example 75, 6′-(2-Hydroxy-ethyl)-1-(2-(azetidin-3-yl)-2-hydroxy-acetyl)-sisomicin]	–	–	–	1 to 16 (≈ 1.65 to 26.5 µM)	> 16
CN[C@@H]1[C@@H](O)[C@@H](O[C@@H]2[C@@H](O)[C@H](O[C@H]3OC(CNCCCN)=CC[C@H]3N)[C@@H](N)C[C@H]2NC(=O)C(O)C2CNC2)OC[C@]1(C)O (stereo partly shown) [Example 76, 6′-(3-Amino-propyl)-1-(2-(azetidin-3-yl)-2-hydroxy-acetyl)-sisomicin]	–	–	–	1 to 16 (≈ 1.62 to 25.9 µM)	1 to 16 (≈ 1.62 to 25.9 µM)
CN[C@@H]1[C@@H](O)[C@@H](O[C@@H]2[C@@H](O)[C@H](O[C@H]3OC(CNCC(O)CCN)=CC[C@H]3N)[C@@H](N)C[C@H]2NC(=O)C(O)C2CNC2)OC[C@]1(C)O (stereo partly shown) [Example 77, 6′-(2-Hydroxy-4-amino-butyl)-1-(2-(azetidin-3-yl)-2-hydroxy-acetyl)-sisomicin]	–	–	–	1 to 16 (≈ 1.54 to 24.7 µM)	1 to 16 (≈ 1.54 to 24.7 µM)
CN[C@@H]1[C@@H](O)[C@@H](O[C@@H]2[C@@H](O)[C@H](O[C@H]3OC(CNC[C@H]4C[C@H](N)C4)=CC[C@H]3N)[C@@H](N)C[C@H]2NC(=O)C2(O)CCNC2)OC[C@]1(C)O (stereo partly drawn) [Example 78, 6′-(Methyl-trans-3-amino-cyclobutyl)-1-(3-hydroxy-pyrrolidin-3-yl-acetyl)-sisomicin]	–	–	–	< 1	1 to 16 (≈ 1.55 to 24.9 µM)
CN[C@@H]1[C@@H](O)[C@@H](O[C@@H]2[C@@H](O)[C@H](O[C@H]3OC(CNCC4(CN)CC4)=CC[C@H]3N)[C@@H](N)C[C@H]2NC(=O)C2(O)CCNC2)OC[C@]1(C)O (stereo partly shown) [Example 79]	–	–	–	1 to 16 (≈ 1.55 to 24.9 µM)	> 16
CN[C@@H]1[C@@H](O)[C@@H](O[C@@H]2[C@@H](O)[C@H](O[C@H]3OC(CNCCCC(O)CN)=CC[C@H]3N)[C@@H](N)C[C@H]2NC(=O)[C@@H](O)CN)OC[C@]1(C)O (stereo partly drawn) [Example 80, 6′-(4-Hydroxy-5-amino-pentyl)-1-(3-amino-2(S)-hydroxy-propionyl)-sisomicin]	–	–	–	< 1	< 1
CN[C@@H]1[C@@H](O)[C@@H](O[C@@H]2[C@@H](O)[C@H](O[C@H]3OC(CNCCNC4CNC4)=CC[C@H]3N)[C@@H](N)C[C@H]2NC(=O)[C@@H](O)CN)OC[C@]1(C)O [Example 81, 6′-(N-(Azetidin-3-yl)-2-amino-ethyl)-1-(3-amino-2(S)-hydroxy-propionyl)-sisomicin]	–	–	–	1 to 16 (≈ 1.58 to 25.3 µM)	> 16
CN[C@@H]1[C@@H](O)[C@@H](O[C@@H]2[C@@H](O)[C@H](O[C@H]3OC(CNCC(O)CN)=CC[C@H]3N)[C@@H](N)C[C@H]2NC(=O)C(O)C2CNC2)OC[C@]1(C)O (stereo partly shown) [Example 82, 6′-(2-Hydroxy-3-amino-propyl)-1-(2-(azetidin-3-yl)-2-hydroxy-acetyl)-sisomicin]	–	–	–	1 to 16 (≈ 1.58 to 25.2 µM)	> 16
CN[C@@H]1[C@@H](O)[C@@H](O[C@@H]2[C@@H](O)[C@H](O[C@H]3OC(CNCC4(O)CC(N)C4)=CC[C@H]3N)[C@@H](N)C[C@H]2NC(=O)C(O)C2CNC2)OC[C@]1(C)O (stereo partly shown) [Example 83, 6′-(Methyl-3-amino-1-hydroxy-cyclobutyl)-1-(2-(azetidin-3-yl)-2-hydroxy-acetyl)-sisomicin]	–	–	–	1 to 16 (≈ 1.52 to 24.3 µM)	> 16
